Reference: patent US20090317293A1, “METHOD AND DEVICE FOR ELIMINATING MICROBES WITHIN INDUSTRIAL PIPELINES” (BioCorrosion Solutions Inc., priority 2008, published 2009)

Key:
[1] = tested on: D. vulgaris (ATCC#29579) biofilms; test: Photodynamic disinfection of peg biofilms, 670 nm laser, anaerobic (Example X); format: cell-based, Desulfovibrio vulgaris; details: control: methylene blue formulation alone, no laser light
[2] = tested on: D. desulfuricans biofilms; test: Photodynamic disinfection of well-plate biofilms, broadband light, anaerobic (Example XI); format: cell-based, Desulfovibrio desulfuricans; details: 0.1%, then 60 second broadband illumination
Protocol: (§1) In this study, biofilms of sulfate reducing bacteria were treated with photodynamic disinfection as in Example X above. In these experiments, however, illumination of the biofilms was performed using a broadband (wide wavelength) light source instead of a laser. […] For the broadband light photodynamic disinfection exposures, biofilms of D. vulgaris and D. sulfuricans were grown on the inner surface of flat-bottomed 96-well plates. In brief, 50 μl of liquid inoculum in log growth phase was added to each well, and plates were then incubated (37° C.) on an […] shaker at 125 rpm for 48 hours in order to allow biofilm growth. […] After this growth period, plates were removed from the shaker into an anaerobic cabinet, where all photodynamic disinfection treatments were performed. […] Raw surviving colony counts for each experimental condition were averaged and back-calculated given dilution factor to give data in CFU/ml. The data was presented as CFU/ml of surviving organisms after treatment, and kill rate was calculated as this value in experimental samples vs. control (no light, no photosensitizer) and expressed as both a log and percentage reduction in viability. […]

[3] = tested on: Desulfovibrio vulgaris (ATCC#29579); test: In vitro photodynamic disinfection of planktonic bacteria, aerobic and anaerobic (Example IX); format: cell-based
Protocol: An in vitro photodynamic disinfection model was used to evaluate antibacterial efficacy against a strain of bacteria commonly found in biofilms growing on the inner surface of industrial oil and gas pipelines. […] This organism is a facultative anaerobe, and typically grows in nature in environments that contain little or no oxygen. Thus, prior to the experiments the bacteria was grown on pre-reduced solid media (brucella blood agar enriched with haemin and vitamin K) at 37° C. under anaerobic conditions. The exposures to photodynamic disinfection were run in both anaerobic and aerobic conditions in order to determine the importance of local oxygen during the photoreaction. […] In addition, several experimental conditions were run in the presence of L-tryptophan, which is a known scavenger of singlet oxygen and other oxygen derived free radicals. The addition of L-tryptophan was designed to test whether the antimicrobial killing effect of photodynamic disinfection was in fact dependent on the generation of reactive forms of oxygen. […] In addition, controls consisting of exposure to either photosensitizer or illumination alone were run to ensure that neither of these variables contributed to bacterial killing on their own. For these photodynamic disinfection experiments, log phase planktonic bacterial inoculum was prepared to a concentration of 10^7 colony-forming units per milliliter (CFU/ml) in a buffered saline solution. […] After illumination, samples were serially diluted and plated on tryptic soy agar for 48 hours at 37° C. Raw surviving colony counts for each experimental condition were averaged and back-calculated given dilution factor to give data in CFU/ml. The data was presented as CFU/ml of surviving organisms after treatment, and kill rate was calculated as this value in experimental samples vs. control (no light, no photosensitizer) and expressed as both a log and percentage reduction in viability. The entire experimental protocol was performed in the dark, and all samples were exposed and plated one at a time to limit ambient light exposure and to maintain the exposure time of bacteria to test solution uniform across all replicates. All experimental and control conditions were run in triplicate for each individual experiment, and experiments were performed on three separate occasions to verify reproducibility.

[4] = tested on: D. desulfuricans (ATCC#14563) biofilms; test: Photodynamic disinfection of peg biofilms, 670 nm laser, anaerobic (Example X); format: cell-based, Desulfovibrio desulfuricans; details: control: methylene blue formulation alone, no laser light
D. vulgaris biofilms = test: Photodynamic disinfection of well-plate biofilms, broadband light, anaerobic (Example XI); format: cell-based, Desulfovibrio vulgaris; details: 0.1% w/v, 30 seconds, then 60 seconds broadband illumination (150 watt haloid lamp)
Protocol: as §1

[5] = tested on: D. vulgaris (ATCC#29579) biofilms; test: Treatment of peg biofilms with chemical disinfectant, anaerobic (Example X); format: cell-based, Desulfovibrio vulgaris
Protocol: (§2) Homogenous biofilms of the sulfate reducing organisms D. vulgaris (ATCC#29579) and D. desulfuricans (ATCC#14563) were grown on hard plastic pegs using a previously published protocol and system (Innovotech, Calgary, Canada). Briefly, bacterial suspensions of D. vulgaris and D. desulfuricans consisting of 10^8 CFU/ml were prepared in modified Barrs medium for sulfate reducers (ATCC), then diluted 1:40. 200 μl of this inoculum was added to each well of a 96-well plate. 96-peg lids were then placed into the wells and the assembly was incubated at 37° C. on an Excella E2 gyrorotary shaker (Fisher Scientific) at 125 rpm for 24 hours. For both biofilm protocols, all inoculum and plates were prepared and incubated anaerobically. During the incubation period, the visible formation of an insoluble black residue in each well indicated bacterial metabolism, and after incubation a visible biofilm was evident on each pegs.
(§3) For treatment of biofilms with benzalkonium chloride (BAC), biofilms grown on pegs as described above were used. 96-peg lids were removed from the bacterial inoculum after 24 hours of incubation, and rinsed twice to remove any free-floating organisms by placing the peg lid in 96-well plates containing 300 μl of sterile water. Pegs were then placed in aqueous solutions containing either 0% (water only control), 0.01%, 0.1%, or 1% BAC for 30 seconds. After this exposure pegs were immediately placed in recovery media and processed/plated as described above for enumeration of surviving organisms. All BAC exposure conditions were run in triplicate in anaerobic conditions for each organism.

[6] = tested on: D. desulfuricans (ATCC#14563) biofilms; test: as above; format: cell-based, Desulfovibrio desulfuricans
Protocol: as §2, §3

[7] = aerobic, 0.01% w/v aqueous methylene blue, 670 nm diode laser 20.6 J/cm2 (60 seconds), planktonic
[8] = anaerobic, 0.01% w/v aqueous methylene blue, 670 nm laser 20.6 J/cm2, planktonic
[9] = 30 second exposure to 0.01% aqueous solution
[10] = 30 second exposure to 0.1% aqueous solution
[11] = 30 second exposure to 1% aqueous solution

Row | Molecule | reduction in biofilm viability [1] | reduction in viability [2] | killing [3, 7] [%] | log10 reduction in viability vs. non-treated controls [3, 7] [log10] | log10 reduction in viability vs. non-treated controls ([3]; aerobic, 0.01% w/v methylene blue with 20 mM L-tryptophan, 670 nm laser 20.6 J/cm2, planktonic) [log10] | killing [3, 8] [%] | log10 reduction vs. non-treated control [3, 8] [log10] | log10 reduction from non-treated control ([3]; anaerobic, 0.01% w/v methylene blue with 20 mM L-tryptophan, 670 nm laser 20.6 J/cm2, planktonic) [log10] | antibacterial action ([3]; control: photosensitizer composition alone, no illumination) | reduction in biofilm viability [4] | decrease in viability compared to non-treated control (D. vulgaris biofilms) [log10] | inhibition at 0.1 % strength (D. vulgaris biofilms; Nitratidesulfovibrio vulgaris, read-out: decrease in viability compared to non-treated control) [%] | reduction in viability vs. non-treated control [5, 9] [log10] | reduction in viability vs. non-treated control [5, 10] [log10] | reduction in viability vs. non-treated control [5, 11] [log10] | reduction in viability vs. non-treated control [6, 9] [log10] | reduction in viability vs. non-treated control [6, 10] [log10] | reduction in viability vs. non-treated control [6, 11] [log10]
1 | CN(C)c1ccc2nc3ccc(=[N+](C)C)cc-3sc2c1 [methylene blue] | Neither the methylene blue formulation nor the laser light alone led to any significant reduction | did not result in a significant reduction in viability | > 99.99 | 4.4±2.3 | 1.7±0.6 | > 99.9 | 3.5±0.8 | 2.5±2.1 | No significant antibacterial action | Neither the methylene blue formulation nor the laser light alone led to any significant reduction | 1.5 | ~95 |  |  |  |  |  | 
2 | benzalkonium chloride [BAC] |  |  |  |  |  |  |  |  |  |  |  |  | 0.5 | 1.4 | 1.5 | 0.6 | 2.7 | 1.9
